The source made the active and inactive calls. No cut-off for these calls is given here.
Key:
Mus musculus [1] = test: Antiobesity activity in diet-induced obese C57Bl/6 mouse assessed as reduction in body weight at 150 mg/kg/day, po for 4 weeks administered with high-fat diet; assay type: functional; design: scale not given: the % may be the effect or the level left
Mus musculus [2] = test: Antiobesity activity in diet-induced obese C57Bl/6 mouse assessed as loss of liver weight at 150 mg/kg/day, po for 4 weeks administered with high-fat diet; assay type: functional
Mus musculus [3] = test: Antiobesity activity in diet-induced obese C57Bl/6 mouse assessed as loss of epididymal fat mass at 150 mg/kg/day, po for 4 weeks administered with high-fat diet; assay type: functional
Mus musculus [4] = test: Increase in glucose tolerance in diet-induced obese C57Bl/6 mouse assessed as induction of insulin secretion at 150 mg/kg/day, po for 4 weeks by oral glucose tolerance test; assay type: functional, organism-based
Mus musculus [5] = test: Decrease in insulin resistance in diet-induced obese C57Bl/6 mouse at 150 mg/kg/day, po for 4 weeks by insulin tolerance test; assay type: functional, organism-based
Mus musculus [6] = test: Antiobesity activity in diet-induced obese C57Bl/6 mouse assessed as reduction in fasting blood glucose at 150 mg/kg/day, po for 4 weeks administered with high-fat diet (reference value: 5.0 +/- 1.30 mM); assay type: functional
Mus musculus [7] = test: Antiobesity activity in diet-induced obese C57Bl/6 mouse assessed as change in insulin level at 150 mg/kg/day, po for 4 weeks administered with high-fat diet (reference value: 11.85 +/- 2.6 mU); assay type: functional
Mus musculus [8] = test: Antiobesity activity in diet-induced obese C57Bl/6 mouse assessed as reduction in triglyceride level at 150 mg/kg/day, po for 4 weeks administered with high-fat diet (reference value: 0.93 +/- 0.09 mM); assay type: functional
Mus musculus [9] = test: Antiobesity activity in diet-induced obese C57Bl/6 mouse assessed as reduction in LDL level at 150 mg/kg/day, po for 4 weeks administered with high-fat diet (reference value: 0.14 +/- 0.07 mM); assay type: functional
Mus musculus [10] = test: Antiobesity activity in diet-induced obese C57Bl/6 mouse assessed as increase in HDL level at 150 mg/kg/day, po for 4 weeks administered with high-fat diet (reference value: 0.60 +/- 0.17 mM); assay type: functional
Mus musculus [11] = test: Antiobesity activity in diet-induced obese C57Bl/6 mouse assessed as reduction in FFA level at 150 mg/kg/day, po for 4 weeks administered with high-fat diet (reference value: 19.55 +/- 1.57 ng/L); assay type: functional
Mus musculus [12] = test: Antiobesity activity in diet-induced obese C57Bl/6 mouse assessed as reduction in hepatic triglyceride level at 150 mg/kg/day, po for 4 weeks administered with high-fat diet by Oil Red O staining-based histological method; assay type: functional; design: scale not given: the % may be the effect or the level left
Mus musculus [13] = test: Antiobesity activity in diet-induced obese C57Bl/6 mouse assessed as reduction in fasting blood glucose at 150 mg/kg/day, po for 4 weeks administered with high-fat diet (reference value: 4.88 +/- 0.75 mM); assay type: functional
Mus musculus [14] = test: Antiobesity activity in diet-induced obese C57Bl/6 mouse assessed as change in insulin level at 150 mg/kg/day, po for 4 weeks administered with high-fat diet (reference value: 4.31 +/- .82 mU); assay type: functional
Mus musculus [15] = test: Antiobesity activity in diet-induced obese C57Bl/6 mouse assessed as reduction in triglyceride level at 150 mg/kg/day, po for 4 weeks administered with high-fat diet (reference value: 0.96 +/- 0.14 mM); assay type: functional
Mus musculus [16] = test: Antiobesity activity in diet-induced obese C57Bl/6 mouse assessed as reduction in LDL level at 150 mg/kg/day, po for 4 weeks administered with high-fat diet (reference value: 0.13 +/- 0.02 mM); assay type: functional
Mus musculus [17] = test: Antiobesity activity in diet-induced obese C57Bl/6 mouse assessed as increase in HDL level at 150 mg/kg/day, po for 4 weeks administered with high-fat diet (reference value: 1.02 +/- 0.13 mM); assay type: functional
Mus musculus [18] = test: Antiobesity activity in diet-induced obese C57Bl/6 mouse assessed as reduction in FFA level at 150 mg/kg/day, po for 4 weeks administered with high-fat diet (reference value: 25.07 +/- 3.49 ng/L); assay type: functional
Mus musculus [19] = test: Antiobesity activity in diet-induced obese C57Bl/6 mouse assessed as reduction in HOMA-IR value at 150 mg/kg/day, po for 4 weeks administered with high-fat diet (reference value: 0.94 +/- 0.23 no_unit); assay type: functional

## CN(C)C(=N)NC(=N)N [METFORMIN]
Mus musculus [1]
  Activity: 19.08%
Mus musculus [2]
  Activity: 23.2%
Mus musculus [3]
  Activity: 22.94%
Mus musculus [4]
  Activity: Active
Mus musculus [5]
  Activity: Active
Mus musculus [6]
  Activity: 5.32 mM
Mus musculus [7]
  Activity: 8.1 mU
Mus musculus [8]
  Activity: 0.92 mM
Mus musculus [9]
  Activity: 0.12 mM
Mus musculus [10]
  Activity: 0.82 mM
Mus musculus [11]
  Activity: 21.56 ng/L
Mus musculus [12]
  Activity: 10.73%
Mus musculus [13]
  Activity: 7.57 mM
Mus musculus [14]
  Activity: 5.48 mU
Mus musculus [15]
  Activity: 1.07 mM
Mus musculus [16]
  Activity: 0.17 mM
Mus musculus [17]
  Activity: 1.38 mM
Mus musculus [18]
  Activity: 26.05 ng/L
Mus musculus [19]
  Activity: 1.73
